Publication PMC10850145, “Hormonal steroids induce multidrug resistance and stress response genes in Neisseria gonorrhoeae by binding to MtrR” (Nature Communications, 2024)
Several values for one entry are separate records, joined by “and”; a condition that tells them apart may be missing. Equal values may be shown once. Read-outs that look alike come from different tables or passages of the source.

Test system: mtrC-lacZ expression
Format: cell-based, Neisseria gonorrhoeae
Settings: for mtrC-lacZ β-galactosidase activity, Mean: left block of sheet (mtrCDE); for β-galactosidase activity, Mean: second (right) untitled block of sheet Figure S10 (mtrC); for β-galactosidase activity, mtrC-lacZ, Mean: strain ΔmtrR + mtrR WT (pGCC3-mtrR); for Plate-6 (Testosterone) Miller units, Mean: upper four plate rows; for Miller units, Mean: right block Plate-4
[1] = strain ΔmtrR + mtrR R176E, 50 µM hormone
[2] = strain ΔmtrR + mtrR WT, 25 µM hormone
[3] = strain ΔmtrR + mtrR WT, 50 µM hormone

C[C@]12CC[C@H]3[C@@H](CCC4=CC(=O)CC[C@@]43C)[C@@H]1CC[C@@H]2O [Testosterone, testosterone]
mtrC-lacZ β-galactosidase activity, Mean [1]: 224 Miller units
β-galactosidase activity, Mean [1]: 83 Miller units
mtrC-lacZ β-galactosidase activity, Mean (strain ΔmtrR + mtrR R176E, 100 µM hormone): 238 Miller units
β-galactosidase activity, mtrC-lacZ, Mean (hormone 6.25 µM): 125 Miller units
β-galactosidase activity, mtrC-lacZ, Mean (hormone 12.5 µM): 130 Miller units
β-galactosidase activity, mtrC-lacZ, Mean (hormone 25 µM): 133 Miller units
β-galactosidase activity, mtrC-lacZ, Mean (hormone 50 µM): 152 Miller units
mtrC-lacZ β-galactosidase activity, Mean (strain ΔmtrR + mtrR WT, 1 µM hormone): 107 Miller units
β-galactosidase activity, Mean (strain ΔmtrR + mtrR WT, 6.25 µM hormone): 45 Miller units
mtrC-lacZ β-galactosidase activity, Mean (strain ΔmtrR + mtrR WT, 10 µM hormone): 177 Miller units
β-galactosidase activity, Mean (strain ΔmtrR + mtrR WT, 12.5 µM hormone): 50 Miller units
mtrC-lacZ β-galactosidase activity, Mean [2]: 181 Miller units
β-galactosidase activity, Mean [2]: 70 Miller units
mtrC-lacZ β-galactosidase activity, Mean [3]: 213 Miller units
β-galactosidase activity, Mean [3]: 74 Miller units
mtrC-lacZ β-galactosidase activity, Mean (strain ΔmtrR + mtrR WT, 100 µM hormone): 227 Miller units
mtrC-lacZ β-galactosidase activity, Mean (strain ΔmtrR, 1 µM hormone): 334 Miller units
β-galactosidase activity, Mean (strain ΔmtrR, 6.25 µM hormone): 146 Miller units
mtrC-lacZ β-galactosidase activity, Mean (strain ΔmtrR, 10 µM hormone): 358 Miller units
β-galactosidase activity, Mean (strain ΔmtrR, 12.5 µM hormone): 153 Miller units
β-galactosidase activity, Mean (strain ΔmtrR, 25 µM hormone): 155 Miller units
mtrC-lacZ β-galactosidase activity, Mean (strain ΔmtrR, 50 µM hormone): 284 Miller units
β-galactosidase activity, Mean (strain ΔmtrR, 50 µM hormone): 141 Miller units
mtrC-lacZ β-galactosidase activity, Mean (strain ΔmtrR, 100 µM hormone): 369 Miller units
Plate-6 (Testosterone) Miller units, Mean (testosterone 6.25 µM, plate column 3): 69 Miller units
Plate-6 (Testosterone) Miller units, Mean (testosterone 6.25 µM, plate column 9 (second strain set, columns 7-12)): 96 Miller units
Plate-6 (Testosterone) Miller units, Mean (testosterone 12.5 µM, plate column 4): 81 Miller units
Plate-6 (Testosterone) Miller units, Mean (testosterone 12.5 µM, plate column 10 (second strain set, columns 7-12)): 102 Miller units
Plate-6 (Testosterone) Miller units, Mean (testosterone 25 µM, plate column 5): 98 Miller units
Plate-6 (Testosterone) Miller units, Mean (testosterone 25 µM, plate column 11 (second strain set, columns 7-12)): 112 Miller units
Plate-6 (Testosterone) Miller units, Mean (testosterone 50 µM, plate column 6): 117 Miller units
Plate-6 (Testosterone) Miller units, Mean (testosterone 50 µM, plate column 12 (second strain set, columns 7-12)): 119 Miller units
Miller units, Mean (third strain (lower plate half, wells 1-6; not named), testosterone 6.25 µM): 45 Miller units
Miller units, Mean (third strain (lower plate half, wells 1-6; not named), testosterone 12.5 µM): 50 Miller units
Miller units, Mean (third strain (lower plate half, wells 1-6; not named), testosterone 25 µM): 70 Miller units
Miller units, Mean (third strain (lower plate half, wells 1-6; not named), testosterone 50 µM): 74 Miller units
Miller units, Mean (ΔmtrR (by plate layout), testosterone 6.25 µM): 146 Miller units
Miller units, Mean (ΔmtrR (by plate layout), testosterone 12.5 µM): 153 Miller units
Miller units, Mean (ΔmtrR (by plate layout), testosterone 25 µM): 155 Miller units
Miller units, Mean (ΔmtrR (by plate layout), testosterone 50 µM): 141 Miller units
β-galactosidase activity, Miller units (single replicate) (ΔmtrR + mtrR WT in trans, 1 µM, first data set (c15-c36)): 95 Miller units and 106 Miller units
β-galactosidase activity, Miller units (single replicate) (ΔmtrR + mtrR WT in trans, 6.25 µM, second data set (c53-c74)): 36 Miller units and 39 Miller units and 65 Miller units and 38 Miller units
β-galactosidase activity, Miller units (single replicate) (ΔmtrR + mtrR WT in trans, 10 µM, first data set (c15-c36)): 167 Miller units and 179 Miller units
β-galactosidase activity, Miller units (single replicate) (ΔmtrR + mtrR WT in trans, 12.5 µM, second data set (c53-c74)): 52 Miller units and 40 Miller units and 64 Miller units and 45 Miller units
β-galactosidase activity, Miller units (single replicate) (ΔmtrR + mtrR WT in trans, 25 µM, first data set (c15-c36)): 181 Miller units and 185 Miller units
β-galactosidase activity, Miller units (single replicate) (ΔmtrR + mtrR WT in trans, 25 µM, second data set (c53-c74)): 72 Miller units and 60 Miller units and 77 Miller units
β-galactosidase activity, Miller units (single replicate) (ΔmtrR + mtrR WT in trans, 50 µM, first data set (c15-c36)): 185 Miller units and 193 Miller units
β-galactosidase activity, Miller units (single replicate) (ΔmtrR + mtrR WT in trans, 50 µM, second data set (c53-c74)): 89 Miller units and 62 Miller units and 81 Miller units and 65 Miller units
β-galactosidase activity, Miller units (single replicate) (ΔmtrR + mtrR WT in trans, 100 µM, first data set (c15-c36)): 195 Miller units and 175 Miller units
β-galactosidase activity, Miller units (single replicate) (ΔmtrR, 1 µM, first data set (c15-c36)): 360 Miller units and 326 Miller units and 318 Miller units
β-galactosidase activity, Miller units (single replicate) (ΔmtrR, 6.25 µM, second data set (c53-c74)): 213 Miller units and 147 Miller units and 123 Miller units and 100 Miller units
β-galactosidase activity, Miller units (single replicate) (ΔmtrR, 10 µM, first data set (c15-c36)): 393 Miller units and 347 Miller units and 355 Miller units and 336 Miller units
β-galactosidase activity, Miller units (single replicate) (ΔmtrR, 12.5 µM, second data set (c53-c74)): 202 Miller units and 175 Miller units and 120 Miller units and 117 Miller units
β-galactosidase activity, Miller units (single replicate) (ΔmtrR, 25 µM, first data set (c15-c36)): 325 Miller units and 289 Miller units and 330 Miller units and 304 Miller units
β-galactosidase activity, Miller units (single replicate) (ΔmtrR, 25 µM, second data set (c53-c74)): 194 Miller units and 180 Miller units and 119 Miller units and 125 Miller units
β-galactosidase activity, Miller units (single replicate) (ΔmtrR, 50 µM, first data set (c15-c36)): 298 Miller units and 287 Miller units and 282 Miller units and 269 Miller units
β-galactosidase activity, Miller units (single replicate) (ΔmtrR, 50 µM, second data set (c53-c74)): 175 Miller units and 157 Miller units and 99 Miller units
β-galactosidase activity, Miller units (single replicate) (ΔmtrR, 100 µM, first data set (c15-c36)): 429 Miller units and 358 Miller units and 309 Miller units and 379 Miller units
